Here are results for 19 compounds from patent publication US8895558B2, “Arylpiperazine-containing pyrrole 3-carboxamide derivatives for treating depressive disorders” (Green Cross Corporation, priority 2008, dated 2014).

As usually defined, the pIC50 is −log10 of the IC50, conventionally taken in molar units.

Test [1] has as its target T1, human recombinant serotonin 5-HT2A receptor (Homo sapiens, UniProt P28223).
T1 construct: purchased PerkinElmer Life and Analytical Sciences, USA; host or cells: CHO-K1
Description: Binding affinity for serotonin 5-HT2A receptor ([3H]Ketanserin). The following applies: CHO-K1 expressed receptor, 1 nM [3H]Ketanserin. An outline of the steps: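 Membranes from CHO-K1 cells expressing recombinant receptor (5 ug/well) incubated 60 min at 27 with 1 nM [3H]ketanserin in 50 mM Tris-HCl pH 7.4, 4 mM CaCl2, 0.1% ascorbic acid; mianserin 20 uM defined nonspecific binding. Filtration and counting; IC50 by nonlinear regression over 7-8 concentrations in duplicate.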

In test [2] the target is T2, human serotonin transporter (Homo sapiens, UniProt P31645).
T2 construct: purchased PerkinElmer; host or cells: HEK-293
Description: Binding affinity for serotonin transporter ([3H]Imipramine). The conditions noted are these: HEK-293 membranes, 2 nM [3H]Imipramine. The gist of the method: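 Membranes from HEK-293 cells expressing human serotonin transporter (5 ug/well) incubated with compound and 2 nM [3H]imipramine in 50 mM Tris-HCl pH 7.4, 120 mM NaCl, 5 mM KCl, 30 min at 27. Bound ligand separated by filtration onto glass fiber filters presoaked in 0.5% PEI, washed with ice-cold Tris-HCl/0.9% NaCl.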

Test [3] deals with T3, human recombinant 5-HT2C receptor (Homo sapiens, UniProt P28335).
T3 construct: purchased PerkinElmer
T3 sequence (P28335 33-458): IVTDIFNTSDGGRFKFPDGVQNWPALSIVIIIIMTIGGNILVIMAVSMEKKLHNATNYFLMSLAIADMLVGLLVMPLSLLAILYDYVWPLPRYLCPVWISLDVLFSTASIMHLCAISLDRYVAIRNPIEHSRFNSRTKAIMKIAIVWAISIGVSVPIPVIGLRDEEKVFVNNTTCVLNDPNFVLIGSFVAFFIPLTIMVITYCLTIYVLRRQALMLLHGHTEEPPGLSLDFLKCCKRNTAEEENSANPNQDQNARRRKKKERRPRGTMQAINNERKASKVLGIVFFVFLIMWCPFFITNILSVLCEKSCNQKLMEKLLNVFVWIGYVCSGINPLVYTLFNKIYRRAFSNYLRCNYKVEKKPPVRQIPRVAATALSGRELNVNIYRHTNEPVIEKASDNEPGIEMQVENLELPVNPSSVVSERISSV
The test is described as follows: Binding affinity for serotonin 5-HT2C receptor ([3H]Mesulergine). The following applies: CHO-K1 membranes, 1.3 nM [3H]Mesulergine. An outline of the steps:
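Competition binding with [3H]mesulergine; nonspecific binding defined with 100 uM mianserin. Incubation 60 min at 27, stopped by rapid filtration onto glass fiber filters presoaked in 0.5% PEI.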

pIC50: −log10 of the molar value. Where a name gives a salt, the structure may show the parent alone.

T2 sequence (P31645 whole entry): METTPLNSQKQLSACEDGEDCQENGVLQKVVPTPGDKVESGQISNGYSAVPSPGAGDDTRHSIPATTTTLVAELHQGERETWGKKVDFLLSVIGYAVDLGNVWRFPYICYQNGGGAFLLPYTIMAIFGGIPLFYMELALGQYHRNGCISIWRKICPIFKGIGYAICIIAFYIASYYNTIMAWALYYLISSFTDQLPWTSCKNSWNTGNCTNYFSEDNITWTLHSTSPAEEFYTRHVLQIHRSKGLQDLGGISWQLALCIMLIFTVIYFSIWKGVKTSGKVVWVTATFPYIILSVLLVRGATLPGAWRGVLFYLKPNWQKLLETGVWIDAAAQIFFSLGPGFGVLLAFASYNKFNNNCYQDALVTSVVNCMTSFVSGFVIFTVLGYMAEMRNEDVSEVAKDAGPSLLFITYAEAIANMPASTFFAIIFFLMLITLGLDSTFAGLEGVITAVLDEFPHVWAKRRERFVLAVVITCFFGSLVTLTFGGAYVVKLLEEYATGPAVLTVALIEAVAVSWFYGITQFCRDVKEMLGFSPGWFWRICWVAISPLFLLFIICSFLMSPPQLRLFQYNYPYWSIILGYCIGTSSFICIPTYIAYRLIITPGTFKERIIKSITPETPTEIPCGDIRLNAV
T1 sequence (P28223 whole entry): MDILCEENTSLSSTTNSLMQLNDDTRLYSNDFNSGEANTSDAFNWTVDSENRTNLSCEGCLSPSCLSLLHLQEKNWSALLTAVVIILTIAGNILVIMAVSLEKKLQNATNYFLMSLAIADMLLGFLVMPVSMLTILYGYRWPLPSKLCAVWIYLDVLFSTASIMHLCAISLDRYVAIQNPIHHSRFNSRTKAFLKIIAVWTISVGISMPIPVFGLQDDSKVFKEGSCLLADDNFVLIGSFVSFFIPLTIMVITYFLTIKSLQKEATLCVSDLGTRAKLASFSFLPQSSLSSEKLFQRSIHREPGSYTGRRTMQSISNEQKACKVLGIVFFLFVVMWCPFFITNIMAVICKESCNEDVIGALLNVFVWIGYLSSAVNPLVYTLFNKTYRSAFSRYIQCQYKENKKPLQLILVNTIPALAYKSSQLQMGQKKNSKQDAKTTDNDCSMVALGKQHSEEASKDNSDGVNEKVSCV

In the case of `Cc1cccc(N2CCN(CCCCNC(=O)c3cc(-c4ccccc4)[nH]c3C)CC2)c1C` [Example 40, N-(4-(4-(2,3-dimethylphenyl)piperazin-1-yl)butyl)-2-methyl-5-phenyl-1H-pyrrole-3-carboxamide hydrochloride], the pIC50 in test [1] is 8.00; in test [2] it was 7.68; in test [3] it was 7.20.
On the same counts, the results for `Cc1cccc(N2CCN(CCCNC(=O)c3cc(-c4ccccc4)n(CC4CCCCC4)c3C)CC2)c1C` [Example 21, 1-(Cyclohexylmethyl)-N-(3-(4-(2,3-dimethylphenyl)piperazin-1-yl)propyl)-2-methyl-5-phenyl-1H-pyrrole-3-carboxamide] are 5.91, 6.45 and 6.20.
On the same counts, the results for `Cc1[nH]c(-c2ccccn2)cc1C(=O)NCCCN1CCN(c2cccc(Cl)c2Cl)CC1` [Example 91, N-(3-(4-(2,3-dichlorophenyl)piperazin-1-yl)propyl)-2-methyl-5-(pyridin-2-yl)-1H-pyrrole-3-carboxamide dihydrochloride] are 7.68, 7.55 and 6.68.
On the same counts, the results for `Cc1c(Cl)cccc1N1CCN(CCCNC(=O)c2cc(C)n(-c3ccccc3)c2C)CC1` [Example 176, N-(3-(4-(3-chloro-2-methylphenyl)piperazin-1-yl)propyl)-2,5-dimethyl-1-phenyl-1H-pyrrole-3-carboxamide] are 6.77, 7.82 and 6.90.
For the compound `Cc1cccc(N2CCN(CCCCNC(=O)c3cc(-c4ccc(Cl)cc4)[nH]c3C)CC2)c1C` [Example 46, 5-(4-chlorophenyl)-N-(4-(4-(2,3-dimethylphenyl)piperazin-1-yl)butyl)-2-methyl-1H-pyrrole-3-carboxamide hydrochloride], the values for the pIC50 in test [1], in test [2] and in test [3] were 7.49, 7.01 and 7.06, respectively.
For `Cc1[nH]c(-c2ccccc2)cc1C(=O)NCCCN1CCN(c2cccc(Cl)c2Cl)CC1` [Example 25, N-(3-(4-(2,3-dichlorophenyl)piperazin-1-yl)propyl)-2-methyl-5-phenyl-1H-pyrrole-3-carboxamide] the same measures were 6.52, 6.88 and 6.22.
Regarding `Cc1cccc(N2CCN(CCCCNC(=O)c3cc(-c4ccccc4)n(C)c3C)CC2)c1C` [Example 35, N-(4-(4-(2,3-dimethylphenyl)piperazin-1-yl)butyl)-1,2-dimethyl-5-phenyl-1H-pyrrole-3-carboxamide hydrochloride], the pIC50 is 7.21 in test [1], 6.83 in test [2] and 7.21 in test [3].
For the compound `CCCn1c(-c2ccccc2)cc(C(=O)NCCCCN2CCN(c3cccc(C)c3C)CC2)c1C` [Example 33, N-(4-(4-(2,3-dimethylphenyl)piperazin-1-yl)butyl)-2-methyl-5-phenyl-1-propyl-1H-pyrrole-3-carboxamide hydrochloride], the pIC50 in test [1] is 6.10; in test [2], 7.12; in test [3], 6.83.
For `CCCn1c(-c2ccccc2)cc(C(=O)NCCCN2CCN(c3ccc(OC)cc3)CC2)c1C` [Example 87, N-(3-(4-(4-methoxyphenyl)piperazin-1-yl)propyl)-2-methyl-5-phenyl-1-propyl-1H-pyrrole-3-carboxamide dihydrochloride] the same measures were 6.19, 6.20 and 5.32.
On the same counts, the results for `Cc1c(C(=O)NCCCN2CCN(c3ccc(F)cc3)CC2)cc(-c2ccccc2)n1C` [Example 155, N-(3-(4-(4-Fluorophenyl)piperazin-1-yl)propyl)-1,2-dimethyl-5-phenyl-1H-pyrrole-3-carboxamide] are 7.66, 6.74 and 6.31.
On the same counts, the results for `Cc1c(C(=O)NCCCN2CCN(c3cccc(Cl)c3Cl)CC2)cc(-c2ccccc2)n1-c1ccc(F)cc1` [Example 16, N-(3-(4-(2,3-dichlorophenyl)piperazin-1-yl)propyl)-1-(4-fluorophenyl)-2-methyl-5-phenyl-1H-pyrrole-3-carboxamide] are 8.39, 6.58 and 6.33.
As for `Cc1[nH]c(-c2ccccc2)cc1C(=O)NCCCCN1CCN(c2cccc(Cl)c2Cl)CC1` [Example 41, N-(4-(4-(2,3-dichlorophenyl)piperazin-1-yl)butyl)-2-methyl-5-phenyl-1H-pyrrole-3-carboxamide hydrochloride], the figures for the pIC50 in test [1], in test [2] and in test [3] were 7.89, 7.68 and 7.85, respectively.
On the same counts, the results for `Cc1c(C(=O)NCCCN2CCN(c3cccc(Cl)c3Cl)CC2)cc(-c2ccccc2)n1C` [Example 10, N-(3-(4-(2,3-dichlorophenyl)piperazin-1-yl)propyl)-1,2-dimethyl-5-phenyl-1H-pyrrole-3-carboxamide] are 7.34, 7.21 and 7.92.
For `CCCn1c(C)c(C(=O)NCCCN2CCN(c3cccc(Cl)c3Cl)CC2)c(C)c1-c1ccccc1` [Example 81, N-(3-(4-(2,3-dichlorophenyl)piperazin-1-yl)propyl)-2,4-dimethyl-5-phenyl-1-propyl-1H-pyrrole-3-carboxamide hydrochloride] the same measures were 7.60, 7.11 and 7.12.
Take `CCn1c(C)c(C(=O)NCCCN2CCN(c3cccc(Cl)c3Cl)CC2)c(C)c1-c1ccccc1` [Example 80, N-(3-(4-(2,3-dichlorophenyl)piperazin-1-yl)propyl)-1-ethyl-2,4-dimethyl-5-phenyl-1H-pyrrole-3-carboxamide hydrochloride]: the pIC50 in test [1] was 7.33; in test [2], 7.01; in test [3] it was 7.38.
As to `COc1ccc(-c2cc(C(=O)NCCCN3CCN(c4cccc(Cl)c4Cl)CC3)c(C)n2C)cc1` [Example 74, N-(3-(4-(2,3-dichlorophenyl)piperazin-1-yl)propyl)-5-(4-methoxyphenyl)-1,2-dimethyl-1H-pyrrole-3-carboxamide hydrochloride], the pIC50 in test [1] is 6.97; in test [2], 7.12; in test [3], 7.00.
For `Cc1c(C(=O)NCCCN2CCN(c3cccc(Cl)c3Cl)CC2)cc(-c2ccc(Cl)cc2)n1C` [Example 62, 5-(4-chlorophenyl)-N-(3-(4-(2,3-dichlorophenyl)piperazin-1-yl)propyl)-1,2-dimethyl-1H-pyrrole-3-carboxamide hydrochloride] the same measures were 6.63, 6.13 and 7.41.
On the same counts, the results for `COc1cccc(N2CCN(CCCNC(=O)c3cc(-c4ccccc4)n(C)c3C)CC2)c1OC` [Example 158, N-(3-(4-(2,3-dimethoxyphenyl)piperazin-1-yl)propyl)-1,2-dimethyl-5-phenyl-1H-pyrrole-3-carboxamide] are 6.18, 5.90 and 6.11.
On the same counts, the results for `CCCn1c(-c2ccccc2)cc(C(=O)NCCCN2CCN(c3cccc(Cl)c3Cl)CC2)c1Cl` [Example 116] are 7.16, 5.96 and 6.87.
